Values quoted from earlier work in patent US20170298446A1, “BIOMARKERS OF BRUTON TYROSINE KINASE INHIBITOR RESISTANCE” (OHIO STATE INNOVATION FOUNDATION, priority 2014, published 2017).

Target: BTK (Homo sapiens, UniProt Q06187)
Sequence (Q06187 whole entry): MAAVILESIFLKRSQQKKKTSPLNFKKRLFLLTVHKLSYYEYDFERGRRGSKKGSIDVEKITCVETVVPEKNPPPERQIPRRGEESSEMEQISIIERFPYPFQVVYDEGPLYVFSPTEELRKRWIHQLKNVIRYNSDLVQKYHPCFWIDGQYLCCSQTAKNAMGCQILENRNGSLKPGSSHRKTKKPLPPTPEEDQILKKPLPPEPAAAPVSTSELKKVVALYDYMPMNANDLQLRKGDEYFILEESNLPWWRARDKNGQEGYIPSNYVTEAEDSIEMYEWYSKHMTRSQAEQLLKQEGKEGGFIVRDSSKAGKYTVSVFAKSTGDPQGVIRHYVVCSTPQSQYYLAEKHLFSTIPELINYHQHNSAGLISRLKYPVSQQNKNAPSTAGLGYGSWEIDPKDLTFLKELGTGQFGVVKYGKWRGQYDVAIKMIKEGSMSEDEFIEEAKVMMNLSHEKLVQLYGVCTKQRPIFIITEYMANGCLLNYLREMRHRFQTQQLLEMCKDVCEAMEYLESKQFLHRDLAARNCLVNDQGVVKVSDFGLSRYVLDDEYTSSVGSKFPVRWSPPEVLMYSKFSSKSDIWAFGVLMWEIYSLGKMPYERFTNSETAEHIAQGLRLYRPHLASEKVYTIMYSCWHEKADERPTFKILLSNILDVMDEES

CC(C)(C)c1ccc(C(=O)Nc2cccc(-c3cn4ccnc4c(Nc4ccccc4)n3)c2)cc1 [CGI-560, 4-(tert-butyl)-N-(3-(8-(phenylamino)imidazo[1,2-a]pyrazin-6-yl)phenyl)benzamide]
selectivity for BTK: > 10 fold
